Entries after “also recorded” stand apart in the source; their conditions may differ.

One test concerns the target T1, murine FSP1 (Mus musculus, UniProt Q8BUE4).
T1 construct: His6 (N, cleaved yes); made in house; host or cells: Escherichia coli BL21 pG-Tf2
T1 sequence (Q8BUE4 1-373): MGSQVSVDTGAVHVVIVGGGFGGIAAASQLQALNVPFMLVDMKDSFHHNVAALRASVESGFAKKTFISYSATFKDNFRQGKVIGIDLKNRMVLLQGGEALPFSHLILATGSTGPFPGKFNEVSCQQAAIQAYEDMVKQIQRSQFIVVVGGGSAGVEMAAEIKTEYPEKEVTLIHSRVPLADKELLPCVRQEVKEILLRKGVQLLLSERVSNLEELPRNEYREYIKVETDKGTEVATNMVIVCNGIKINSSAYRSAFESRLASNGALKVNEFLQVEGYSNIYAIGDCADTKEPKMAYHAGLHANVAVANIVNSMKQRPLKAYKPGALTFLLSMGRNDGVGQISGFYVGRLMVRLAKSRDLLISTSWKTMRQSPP
The experiment in a line: In vitro FSP1 oxidoreductase (NADH consumption) assay, murine FSP1. The class given is biochemical. The settings on record: resazurine or coQ1 as electron acceptor. As to the method: FSP1 activity assays were performed using recombinant, purified murine or human FSP1, NADH, and resazurine or coenzyme-Q1 (coQ1) as electron acceptor molecules. The following conditions were used: 200 μM resazurine were reduced with 750 nM mFSP1 or 150 nM hFSP1; 100 μM coQ1 was reduced with 400 nM mFSP1; and 137 μM coQ1 were reduced with 200 nM hFSP1. The consumption of NADH (500 μM) was measured at 340 nm in phosphate-buffered saline (80 mM Na3PO4, 300 mM NaCl; pH 7.0) at room temperature on a CLARIOstar microplate reader (BMG Labtech). Initial rates were determined, and data were fitted by linear regression using GraphPad Prism software, version 9.1.2.
In order to determine inhibition of FSP1 by CPBA, FSP1 activity was measured […] either CPBA or iFSP1 as a positive control. In vitro FSP1 oxidoreductase activity assays were performed using recombinant, purified murine or human FSP1, NADH, and resazurine or coenzyme-Q1 (coQ1) as electron acceptor molecules as described above (see FIG. 19).
In vitro FSP1 activity assays with human (see FIG. 22 C) or murine (see FIG. 22 D) FSP1 were performed as described above. Shown are NADH consumption assays using recombinant, purified human or mouse FSP1 (hFSP1, mFSP1) and resazurine or coenzyme-Q1 (CoQ1) as electron acceptor molecules.

In another test the test system is cancer cell lines. The experiment in a line: FIN56 toxicity in a panel of cancer cell lines. Format: cell-based, human, mouse, rat. The source says: Cell culture media and supplements were from Thermo Fisher Scientific, unless specified otherwise. Mouse embryonic fibroblasts (MEFs) were generated from Pgp-wildtype (Pgp^fl/fl) or heterozygous Pgp-inactivated mouse embryos (Pgp^fl/D34N) as described (Segerer et al., 2016). Human embryonic kidney HEK-AD293 (HEK293) cells (Stratagene), HT-1080 human fibrosarcoma cells, PC3 and Du145 human prostate carcinoma cells, HepG2 human hepatocytic carcinoma (HCC) cells, Hepa 1-6 murine HCC, 4T1 mouse breast carcinoma, Colon-26 mouse colon carcinoma, C6 rat glioblastoma and RAW264.7 mouse monocytes/macrophages (all from LGC Standards) were cultured in Dulbecco's modified Eagle's medium (DMEM, 4.5 g/L glucose) supplemented with 10% (v/v) heat-inactivated fetal calf serum (FCS), 2 mM L-glutamine, 100 U/mL penicillin and 100 μg/mL streptomycin (Pen/Strep). Hepa-1c1c7 murine HCC were grown in alpha MEM without nucleosides (Gibco, cat. no. 31095029) supplemented with 10% FCS and Pen/Strep. JTC-27 rat HCC were cultured in RPMI-1640 with 10% FCS and Pen/Strep. […]
Cells were seeded onto 96-well plates (5,000 cells per well), and treated with serial dilutions of ferroptosis-inducing compounds (erastin, BSO, RSL3, FIN56) or cytotoxic drugs (staurosporine, nocodazole, tunicamycin, paclitaxel, etoposide, menadione, rotenone, FCCP, carboplatin) in the absence or presence of CPBA or iFSP1 (100 μM or 10 μM, respectively; unless stated otherwise) or the DMSO solvent control. Ferroptotic cell death was evaluated by incubating in the absence or presence of liproxstatin-1 (100 nM), ferrostatin-1 (200 nM), or deferoxamine (100 μM). Cell viability was assessed after 16 h using AquaBluer as an indicator of viable cells according to the manufacturer's recommendations (MultiTarget Pharmaceuticals, LLC). Fluorescence (excitation, 540 nm; emission, 590 nm) was analyzed on a Clariostar microplater reader. […]

Regarding `O=C(Nc1ccccc1C(=O)O)c1ccc(Oc2ccc(C(=O)Nc3ccccc3C(=O)O)cc2)cc1` [CPBA, 2-[[4-[4-[(2-carboxyphenyl)carbamoyl]phenoxy]benzoyl]amino]-benzoic acid], the “inhibition of murine FSP1 activity” value at murine FSP1 was “inhibits human and murine FSP1 activity; also recorded: much more effective inhibition of murine FSP1 by CPBA compared to iFSP1”. Besides, the “sensitization of cancer cell lines to FIN56-induced ferroptosis” value with cancer cell lines (CPBA 100 μM, iFSP1 10 μM (3 μM in HepG2), 16 h) was “sensitizes cancer cell lines of different species and tumor types to ferroptosis”.
In the case of `Cc1ccc(-c2c(C#N)c(N)n3c(nc4ccccc43)c2C#N)cc1` [iFSP1, reference compound], on murine FSP1, the “inhibition of murine FSP1 activity” value is on record as “has no effect on mFSP1; also recorded: much less active against murine FSP1”. Moreover, the “effect in human cancer cell lines” value with cancer cell lines (human cancer cell lines) is “able to inhibit endogenous and overexpressed FSP1 in human cancer cell lines, and thereby sensitize these cells to ferroptotic death”. For the same molecule, in the test on cancer cell lines (mouse or rat cancer cell lines (FIG. 20A)), the “effect in mouse or rat cancer cell lines” value is recorded as “completely ineffective in mouse or rat cancer cell lines”.
